Assay results published in paper PMC3984115 (PLoS ONE, 2014).
Where a SMILES comes first, the peptide text is derived from it. Bridges are numbered along the chain shown (N, C = ends). [ ]: non-standard residue; d: D form. Hyp = O=C(O)[C@@H]1C[C@@H](O)CN1

Experiments:
Assay in all cases: cell-based
human α6/α3β4 nAChR = target: T1, human α6/α3β4 nAChR (Homo sapiens, UniProt P30926+P32297+Q15825)
T1 construct: expressed in transfected cells; host or cells: Xenopus laevis oocytes (cRNA injection, 1:1 ratio)

human α6/α3β2β3 nAChR = target: T2, human α6/α3β2β3 nAChR (Homo sapiens, UniProt P17787+P32297+Q05901+Q15825)
T2 construct: expressed in transfected cells; host or cells: Xenopus laevis oocytes (cRNA injection, 1:1 ratio)

human α3β4 nAChR = target: T3, human α3β4 nAChR (Homo sapiens, UniProt P30926+P32297)
T3 construct: expressed in transfected cells; host or cells: Xenopus laevis oocytes (cRNA injection, 1:1 ratio)
T3 sequence (P32297 32-505 limits assumed): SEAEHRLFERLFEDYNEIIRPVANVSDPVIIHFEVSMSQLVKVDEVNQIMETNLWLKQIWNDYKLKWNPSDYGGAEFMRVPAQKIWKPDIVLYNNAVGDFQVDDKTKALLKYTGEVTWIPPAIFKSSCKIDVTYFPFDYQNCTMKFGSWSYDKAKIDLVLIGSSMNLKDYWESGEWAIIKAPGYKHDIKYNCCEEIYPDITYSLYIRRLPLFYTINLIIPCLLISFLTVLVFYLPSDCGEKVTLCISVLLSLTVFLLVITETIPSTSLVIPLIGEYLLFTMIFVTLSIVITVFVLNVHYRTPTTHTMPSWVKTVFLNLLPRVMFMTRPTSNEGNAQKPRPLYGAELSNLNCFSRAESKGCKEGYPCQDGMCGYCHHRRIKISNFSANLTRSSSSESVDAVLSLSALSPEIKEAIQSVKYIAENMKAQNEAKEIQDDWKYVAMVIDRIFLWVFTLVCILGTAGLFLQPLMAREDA
T3 sequence (P30926 22-498 limits assumed): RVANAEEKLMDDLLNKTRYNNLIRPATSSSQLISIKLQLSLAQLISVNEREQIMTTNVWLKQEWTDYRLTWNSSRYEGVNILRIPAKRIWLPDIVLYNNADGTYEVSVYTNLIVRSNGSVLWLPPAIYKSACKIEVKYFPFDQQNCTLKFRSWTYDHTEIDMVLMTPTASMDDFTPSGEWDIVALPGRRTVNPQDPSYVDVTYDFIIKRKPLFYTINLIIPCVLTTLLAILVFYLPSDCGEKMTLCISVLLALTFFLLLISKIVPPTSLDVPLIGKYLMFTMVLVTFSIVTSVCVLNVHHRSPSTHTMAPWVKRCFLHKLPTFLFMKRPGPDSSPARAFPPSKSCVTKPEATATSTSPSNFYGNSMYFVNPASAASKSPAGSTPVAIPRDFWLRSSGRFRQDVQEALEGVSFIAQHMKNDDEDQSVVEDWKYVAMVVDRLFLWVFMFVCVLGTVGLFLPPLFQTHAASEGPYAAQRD

T1 sequence (P30926 whole entry, looked up): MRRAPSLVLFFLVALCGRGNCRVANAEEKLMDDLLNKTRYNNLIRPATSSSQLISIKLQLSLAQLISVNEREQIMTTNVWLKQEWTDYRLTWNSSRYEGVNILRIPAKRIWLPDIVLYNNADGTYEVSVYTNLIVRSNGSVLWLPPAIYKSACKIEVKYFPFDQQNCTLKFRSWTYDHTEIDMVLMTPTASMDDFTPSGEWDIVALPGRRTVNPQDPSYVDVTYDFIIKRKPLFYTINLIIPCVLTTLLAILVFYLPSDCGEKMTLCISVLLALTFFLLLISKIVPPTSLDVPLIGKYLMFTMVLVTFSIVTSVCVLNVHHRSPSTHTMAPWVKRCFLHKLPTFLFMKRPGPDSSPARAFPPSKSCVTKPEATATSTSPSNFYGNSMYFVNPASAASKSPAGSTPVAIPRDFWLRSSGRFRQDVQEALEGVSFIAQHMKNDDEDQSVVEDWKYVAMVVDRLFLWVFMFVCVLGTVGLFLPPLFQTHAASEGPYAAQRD
T1 sequence (P32297 whole entry, looked up): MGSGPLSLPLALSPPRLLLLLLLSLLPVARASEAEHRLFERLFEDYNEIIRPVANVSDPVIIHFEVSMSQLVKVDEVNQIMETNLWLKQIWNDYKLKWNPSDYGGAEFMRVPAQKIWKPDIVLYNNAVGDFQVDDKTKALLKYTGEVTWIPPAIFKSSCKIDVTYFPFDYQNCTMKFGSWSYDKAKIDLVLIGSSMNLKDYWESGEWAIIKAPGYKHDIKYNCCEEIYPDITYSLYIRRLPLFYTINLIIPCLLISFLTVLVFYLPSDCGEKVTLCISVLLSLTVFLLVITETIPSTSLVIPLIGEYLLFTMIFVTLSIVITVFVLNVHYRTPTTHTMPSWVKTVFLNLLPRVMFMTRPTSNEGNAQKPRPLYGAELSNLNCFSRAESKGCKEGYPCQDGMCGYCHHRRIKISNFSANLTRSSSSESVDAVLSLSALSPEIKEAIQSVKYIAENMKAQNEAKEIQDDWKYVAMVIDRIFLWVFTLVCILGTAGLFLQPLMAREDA
T1 sequence (Q15825 whole entry, looked up): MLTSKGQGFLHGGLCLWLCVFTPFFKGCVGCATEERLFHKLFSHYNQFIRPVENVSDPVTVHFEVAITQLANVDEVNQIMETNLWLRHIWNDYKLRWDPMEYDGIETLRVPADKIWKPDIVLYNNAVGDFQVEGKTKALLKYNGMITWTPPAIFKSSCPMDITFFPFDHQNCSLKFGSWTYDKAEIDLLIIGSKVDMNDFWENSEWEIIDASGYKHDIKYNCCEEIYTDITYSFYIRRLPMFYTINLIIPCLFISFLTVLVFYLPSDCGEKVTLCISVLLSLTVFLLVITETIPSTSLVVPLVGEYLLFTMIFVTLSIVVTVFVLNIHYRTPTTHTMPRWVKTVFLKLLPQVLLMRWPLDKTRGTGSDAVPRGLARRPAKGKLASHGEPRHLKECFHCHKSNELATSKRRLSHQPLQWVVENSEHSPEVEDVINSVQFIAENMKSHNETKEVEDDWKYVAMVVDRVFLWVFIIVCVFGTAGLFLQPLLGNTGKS
T2 sequence (P17787 whole entry, looked up): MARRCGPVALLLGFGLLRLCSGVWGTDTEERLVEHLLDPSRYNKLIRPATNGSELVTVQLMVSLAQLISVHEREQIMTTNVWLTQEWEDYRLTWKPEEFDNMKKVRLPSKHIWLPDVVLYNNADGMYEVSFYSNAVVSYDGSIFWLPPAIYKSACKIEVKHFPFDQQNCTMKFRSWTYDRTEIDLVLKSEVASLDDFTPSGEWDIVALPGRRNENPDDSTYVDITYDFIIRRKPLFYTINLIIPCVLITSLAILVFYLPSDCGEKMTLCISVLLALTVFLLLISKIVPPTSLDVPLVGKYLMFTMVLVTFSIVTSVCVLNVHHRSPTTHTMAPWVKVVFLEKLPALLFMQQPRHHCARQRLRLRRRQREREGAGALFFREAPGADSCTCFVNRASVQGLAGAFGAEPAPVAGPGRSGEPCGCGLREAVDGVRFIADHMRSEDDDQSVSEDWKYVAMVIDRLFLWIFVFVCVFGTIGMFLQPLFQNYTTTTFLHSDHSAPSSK
T2 sequence (P32297 whole entry, looked up): as the sequence (P32297 whole entry, looked up) above
T2 sequence (Q05901 whole entry, looked up): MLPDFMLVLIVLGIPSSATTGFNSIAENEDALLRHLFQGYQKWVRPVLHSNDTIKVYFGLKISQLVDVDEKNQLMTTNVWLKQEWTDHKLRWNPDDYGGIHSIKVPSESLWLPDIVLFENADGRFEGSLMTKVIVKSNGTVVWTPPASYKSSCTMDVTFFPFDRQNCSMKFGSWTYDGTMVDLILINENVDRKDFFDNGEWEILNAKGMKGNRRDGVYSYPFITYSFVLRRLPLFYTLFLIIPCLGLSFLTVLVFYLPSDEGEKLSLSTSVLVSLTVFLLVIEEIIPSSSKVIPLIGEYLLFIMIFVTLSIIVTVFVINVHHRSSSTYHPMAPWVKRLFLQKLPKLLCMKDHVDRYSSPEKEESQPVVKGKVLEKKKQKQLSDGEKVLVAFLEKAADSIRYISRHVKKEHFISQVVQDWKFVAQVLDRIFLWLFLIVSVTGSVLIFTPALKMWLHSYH
T2 sequence (Q15825 whole entry, looked up): as the sequence (Q15825 whole entry, looked up) above

SMILES	IC50 (human α6/α3β4 nAChR)	fold selectivity, α6/α3β4 over α6/α3β2β3 (IC50 ratio) (human α6/α3β4 nAChR)	IC50 (human α6/α3β2β3 nAChR)	IC50 (human α3β4 nAChR)
CC(C)C[C@@H]1NC(=O)[C@H](C(C)C)NC(=O)[C@H](C)NC(=O)[C@@H]2CSSC[C@H](NC(=O)CN)C(=O)N[C@@H](CSSC[C@@H](C(N)=O)NC(=O)[C@H](Cc3ccc(O)cc3)NC1=O)C(=O)N[C@@H](CO)C(=O)N[C@@H](C)C(=O)N1C[C@H](O)C[C@H]1C(=O)N1CCC[C@H]1C(=O)N2 [BuIA[T5A,P6O]] (H-GCCSA[Hyp]PCAVLYC-NH2; disulfide 2-8, 3-13)	11.1 nM	> 900 fold	> 10 µM	
CC(C)C[C@@H]1NC(=O)[C@H](C)NC(=O)[C@@H]2CSSC[C@H](NC(=O)CN)C(=O)N[C@@H](CSSC[C@@H](C(N)=O)NC(=O)[C@H](C)NC(=O)[C@H](CC(N)=O)NC(=O)[C@H](CO)NC(=O)[C@H](Cc3cnc[nH]3)NC(=O)[C@H](CCC(=O)O)NC1=O)C(=O)N[C@@H](CO)C(=O)N[C@@H](CC(N)=O)C(=O)N1CCC[C@H]1C(=O)N[C@@H](C(C)C)C(=O)N2 [MII[H9A,L15A]] (H-GCCSNPVCALEHSNAC-NH2; disulfide 2-8, 3-16)	13.3 nM			1400 nM
